According to ChEMBL document CHEMBL4507310, “Data for DCP probe A-1211212” (2021):

How the values were obtained:
[1] = molecular target: Phosphorylase b kinase gamma catalytic chain, skeletal muscle/heart isoform (Homo sapiens) (UniProt Q16816); settings: Compound concentration 1000.0 nM
[2] = molecular target: Serine/threonine-protein kinase OSR1 (Homo sapiens) (UniProt O95747); settings: Compound concentration 1000.0 nM
[3] = molecular target: Estrogen receptor (Homo sapiens) (UniProt P03372); test: Estrogen ER alpha (h) Eurofins-Cerep binding assay; parameters: ligand concentration 0.5 nM; settings: filed as agonist, Compound concentration 10.0 uM
Chain of Estrogen receptor (Homo sapiens) (P03372 whole entry): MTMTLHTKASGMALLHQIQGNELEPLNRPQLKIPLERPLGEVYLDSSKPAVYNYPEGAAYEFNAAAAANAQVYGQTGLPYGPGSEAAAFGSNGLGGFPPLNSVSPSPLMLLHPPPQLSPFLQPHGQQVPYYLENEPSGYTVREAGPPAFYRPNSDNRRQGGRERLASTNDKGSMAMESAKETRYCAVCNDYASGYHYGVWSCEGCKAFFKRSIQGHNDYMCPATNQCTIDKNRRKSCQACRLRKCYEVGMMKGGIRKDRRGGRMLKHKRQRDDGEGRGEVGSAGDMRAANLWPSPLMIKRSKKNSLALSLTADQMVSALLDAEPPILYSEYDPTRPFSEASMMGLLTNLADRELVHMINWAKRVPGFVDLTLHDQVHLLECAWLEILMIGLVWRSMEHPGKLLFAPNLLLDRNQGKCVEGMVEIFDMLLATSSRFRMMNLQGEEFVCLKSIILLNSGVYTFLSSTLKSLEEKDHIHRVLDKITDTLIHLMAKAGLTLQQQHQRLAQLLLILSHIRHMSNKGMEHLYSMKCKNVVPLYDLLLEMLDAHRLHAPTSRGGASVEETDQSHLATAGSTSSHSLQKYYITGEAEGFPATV

[4] = molecular target: Endothelin-1 receptor (Homo sapiens) (UniProt P25101); test: ETA (h) Eurofins-Cerep binding assay; parameters: ligand concentration 0.03 nM; settings: filed as agonist, Compound concentration 10.0 uM
[5] = molecular target: Protein kinase C epsilon type (Homo sapiens) (UniProt Q02156); settings: Compound concentration 1000.0 nM
[6] = molecular target: Histamine H1 receptor (Homo sapiens) (UniProt P35367); settings: Compound concentration 10.0 uM
[7] = molecular target: Serine/threonine-protein kinase MARK2 (Homo sapiens) (UniProt Q7KZI7); settings: Compound concentration 1000.0 nM
[8] = molecular target: Myosin light chain kinase family member 4 (Homo sapiens) (UniProt Q86YV6); settings: Compound concentration 1000.0 nM
[9] = tested on: Mast/stem cell growth factor receptor Kit (Homo sapiens), P10721 [V559D]; settings: Compound concentration 1000.0 nM
[10] = molecular target: Serine/threonine-protein kinase BRSK2 (Homo sapiens) (UniProt Q8IWQ3); settings: Compound concentration 1000.0 nM
[11] = molecular target: MAP kinase-activated protein kinase 2 (Homo sapiens) (UniProt P49137); settings: Compound concentration 1000.0 nM
[12] = molecular target: SNF-related serine/threonine-protein kinase (Homo sapiens) (UniProt Q9NRH2); settings: Compound concentration 1000.0 nM
[13] = tested on: Tyrosine-protein kinase ABL1 (Homo sapiens), P00519 [F317L]; settings: Compound concentration 1000.0 nM
[14] = molecular target: Serine/threonine-protein kinase PLK1 (Homo sapiens) (UniProt P53350); settings: Compound concentration 1000.0 nM
[15] = molecular target: Receptor tyrosine-protein kinase erbB-4 (Homo sapiens) (UniProt Q15303); settings: Compound concentration 1000.0 nM
[16] = molecular target: Maternal embryonic leucine zipper kinase (Homo sapiens) (UniProt Q14680); settings: Compound concentration 1000.0 nM
Chain of Maternal embryonic leucine zipper kinase (Homo sapiens) (Q14680 whole entry, looked up): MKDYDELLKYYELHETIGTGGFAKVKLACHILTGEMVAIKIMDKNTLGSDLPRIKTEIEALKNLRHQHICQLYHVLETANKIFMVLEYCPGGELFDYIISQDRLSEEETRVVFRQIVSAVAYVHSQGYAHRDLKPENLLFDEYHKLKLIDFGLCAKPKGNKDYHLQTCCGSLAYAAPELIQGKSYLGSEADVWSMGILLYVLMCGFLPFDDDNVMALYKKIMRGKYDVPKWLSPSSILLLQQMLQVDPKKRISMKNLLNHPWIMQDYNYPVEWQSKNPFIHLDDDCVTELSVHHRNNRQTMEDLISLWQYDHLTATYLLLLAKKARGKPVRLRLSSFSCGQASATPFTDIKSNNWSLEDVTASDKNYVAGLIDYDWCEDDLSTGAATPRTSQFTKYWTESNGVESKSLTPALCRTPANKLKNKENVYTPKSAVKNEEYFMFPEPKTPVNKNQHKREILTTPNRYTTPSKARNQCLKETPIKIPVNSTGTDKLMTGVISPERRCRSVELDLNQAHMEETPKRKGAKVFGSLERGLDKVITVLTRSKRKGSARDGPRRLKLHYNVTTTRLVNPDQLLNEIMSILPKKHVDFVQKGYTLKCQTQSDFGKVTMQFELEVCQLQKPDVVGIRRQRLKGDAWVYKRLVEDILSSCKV

[17] = tested on: Mast/stem cell growth factor receptor Kit (Homo sapiens), P10721 [V559D,V654A]; settings: Compound concentration 1000.0 nM
[18] = molecular target: Mitogen-activated protein kinase kinase kinase 4 (Homo sapiens) (UniProt Q9Y6R4); settings: Compound concentration 1000.0 nM
[19] = molecular target: Casein kinase II subunit alpha (Homo sapiens) (UniProt P68400); settings: Compound concentration 1000.0 nM
[20] = molecular target: Dual specificity mitogen-activated protein kinase kinase 3 (Homo sapiens) (UniProt P46734); settings: Compound concentration 1000.0 nM
Chain of Dual specificity mitogen-activated protein kinase kinase 3 (Homo sapiens) (P46734 whole entry): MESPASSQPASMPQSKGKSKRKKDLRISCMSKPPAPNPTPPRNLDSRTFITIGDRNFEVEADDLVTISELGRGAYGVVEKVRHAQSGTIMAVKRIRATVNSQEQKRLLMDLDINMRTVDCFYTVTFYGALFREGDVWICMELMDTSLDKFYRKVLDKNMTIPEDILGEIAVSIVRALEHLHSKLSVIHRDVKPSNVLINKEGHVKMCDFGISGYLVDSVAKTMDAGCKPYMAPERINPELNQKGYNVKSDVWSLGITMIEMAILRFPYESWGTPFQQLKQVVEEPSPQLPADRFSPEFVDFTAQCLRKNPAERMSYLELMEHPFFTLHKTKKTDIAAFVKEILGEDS

[21] = molecular target: Serine/threonine-protein kinase 32A (Homo sapiens) (UniProt Q8WU08); settings: Compound concentration 1000.0 nM
[22] = tested on: Tyrosine-protein kinase ABL1 (Homo sapiens), P00519 [Q252H]; settings: Compound concentration 1000.0 nM
[23] = molecular target: MAP kinase-interacting serine/threonine-protein kinase 1 (Homo sapiens) (UniProt Q9BUB5); settings: Compound concentration 1000.0 nM
[24] = molecular target: Mitogen-activated protein kinase kinase kinase kinase 3 (Homo sapiens) (UniProt Q8IVH8); settings: Compound concentration 1000.0 nM
[25] = molecular target: 5-hydroxytryptamine receptor 2B (Homo sapiens) (UniProt P41595); test: 5-HT2B (h) Eurofins-Cerep binding assay; parameters: ligand concentration 0.2 nM; settings: filed as agonist, Compound concentration 10.0 uM
[26] = molecular target: Mitogen-activated protein kinase kinase kinase kinase 1 (Homo sapiens) (UniProt Q92918); settings: Compound concentration 1000.0 nM
[27] = molecular target: 5-hydroxytryptamine receptor 1D (Homo sapiens) (UniProt P28221); settings: Compound concentration 10.0 uM
Chain of 5-hydroxytryptamine receptor 1D (Homo sapiens) (P28221 whole entry): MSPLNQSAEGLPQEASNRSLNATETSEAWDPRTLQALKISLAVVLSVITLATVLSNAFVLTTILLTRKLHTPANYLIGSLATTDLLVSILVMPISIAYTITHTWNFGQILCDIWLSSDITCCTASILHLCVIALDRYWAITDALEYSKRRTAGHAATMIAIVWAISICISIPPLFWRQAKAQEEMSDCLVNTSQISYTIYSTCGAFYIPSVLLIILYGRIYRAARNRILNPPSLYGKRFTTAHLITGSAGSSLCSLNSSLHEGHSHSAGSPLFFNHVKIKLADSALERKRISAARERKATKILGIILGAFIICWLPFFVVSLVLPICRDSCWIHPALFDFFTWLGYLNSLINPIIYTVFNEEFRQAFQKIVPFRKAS

[28] = molecular target: Serine/threonine-protein kinase PLK3 (Homo sapiens) (UniProt Q9H4B4); settings: Compound concentration 1000.0 nM
[29] = tested on: Epidermal growth factor receptor (Homo sapiens), P00533 [G719C]; settings: Compound concentration 1000.0 nM
[30] = molecular target: Leucine-rich repeat serine/threonine-protein kinase 2 (Homo sapiens) (UniProt Q5S007); settings: Compound concentration 1000.0 nM
[31] = molecular target: Serine/threonine-protein kinase 36 (Homo sapiens) (UniProt Q9NRP7); settings: Compound concentration 1000.0 nM
[32] = molecular target: Tyrosine-protein kinase Blk (Homo sapiens) (UniProt P51451); settings: Compound concentration 1000.0 nM
[33] = molecular target: Casein kinase I isoform gamma-2 (Homo sapiens) (UniProt P78368); settings: Compound concentration 1000.0 nM
[34] = molecular target: Phosphatidylinositol 4,5-bisphosphate 3-kinase catalytic subunit gamma isoform (Homo sapiens) (UniProt P48736); settings: Compound concentration 1000.0 nM
Chain of Phosphatidylinositol 4,5-bisphosphate 3-kinase catalytic subunit gamma isoform (Homo sapiens) (P48736 whole entry, looked up, canonical isoform): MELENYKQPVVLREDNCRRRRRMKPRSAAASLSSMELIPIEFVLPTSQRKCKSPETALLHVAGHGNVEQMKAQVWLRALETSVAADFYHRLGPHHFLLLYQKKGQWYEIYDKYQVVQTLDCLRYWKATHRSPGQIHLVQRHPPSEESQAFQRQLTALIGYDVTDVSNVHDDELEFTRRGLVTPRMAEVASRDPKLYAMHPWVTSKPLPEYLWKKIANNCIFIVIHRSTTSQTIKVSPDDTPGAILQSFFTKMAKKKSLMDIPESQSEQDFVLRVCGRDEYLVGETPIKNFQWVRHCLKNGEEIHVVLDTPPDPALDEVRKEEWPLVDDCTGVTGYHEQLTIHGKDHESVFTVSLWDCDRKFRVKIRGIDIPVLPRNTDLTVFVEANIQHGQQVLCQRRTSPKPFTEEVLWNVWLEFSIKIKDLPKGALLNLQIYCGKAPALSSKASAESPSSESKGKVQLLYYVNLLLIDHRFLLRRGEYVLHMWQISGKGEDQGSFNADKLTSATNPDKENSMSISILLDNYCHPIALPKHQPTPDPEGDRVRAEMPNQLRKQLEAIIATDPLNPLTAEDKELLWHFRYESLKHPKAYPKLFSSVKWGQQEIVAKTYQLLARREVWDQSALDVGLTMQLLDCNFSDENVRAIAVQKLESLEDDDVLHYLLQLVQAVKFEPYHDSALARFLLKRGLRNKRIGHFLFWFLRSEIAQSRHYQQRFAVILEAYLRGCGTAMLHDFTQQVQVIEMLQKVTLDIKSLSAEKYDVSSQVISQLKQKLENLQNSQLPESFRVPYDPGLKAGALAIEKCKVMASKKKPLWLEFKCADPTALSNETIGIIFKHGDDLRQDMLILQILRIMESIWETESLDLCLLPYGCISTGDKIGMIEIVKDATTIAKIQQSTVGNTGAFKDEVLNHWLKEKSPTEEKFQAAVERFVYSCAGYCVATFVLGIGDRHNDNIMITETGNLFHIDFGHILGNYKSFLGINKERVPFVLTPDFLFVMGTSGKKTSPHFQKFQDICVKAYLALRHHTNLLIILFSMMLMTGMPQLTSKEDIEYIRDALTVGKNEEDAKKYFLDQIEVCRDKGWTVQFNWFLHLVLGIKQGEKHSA

[35] = molecular target: Testis-specific serine/threonine-protein kinase 1 (Homo sapiens) (UniProt Q9BXA7); settings: Compound concentration 1000.0 nM
[36] = molecular target: MAO-A (amine oxidase [flavin-containing] A) (Rattus norvegicus, UniProt P21396); test: MAO-A Eurofins-Cerep binding assay; parameters: incubation time 60 min, incubation temperature 37°C, ligand concentration 10 nM; settings: rat cerebral cortex, probe [3H]Ro 41-1049 (10 nM), compound concentration 10 uM, read-out: % Inhibition of Control Specific Binding (Mean n=2)
Chain of MAO-A (amine oxidase [flavin-containing] A) (P21396 whole entry): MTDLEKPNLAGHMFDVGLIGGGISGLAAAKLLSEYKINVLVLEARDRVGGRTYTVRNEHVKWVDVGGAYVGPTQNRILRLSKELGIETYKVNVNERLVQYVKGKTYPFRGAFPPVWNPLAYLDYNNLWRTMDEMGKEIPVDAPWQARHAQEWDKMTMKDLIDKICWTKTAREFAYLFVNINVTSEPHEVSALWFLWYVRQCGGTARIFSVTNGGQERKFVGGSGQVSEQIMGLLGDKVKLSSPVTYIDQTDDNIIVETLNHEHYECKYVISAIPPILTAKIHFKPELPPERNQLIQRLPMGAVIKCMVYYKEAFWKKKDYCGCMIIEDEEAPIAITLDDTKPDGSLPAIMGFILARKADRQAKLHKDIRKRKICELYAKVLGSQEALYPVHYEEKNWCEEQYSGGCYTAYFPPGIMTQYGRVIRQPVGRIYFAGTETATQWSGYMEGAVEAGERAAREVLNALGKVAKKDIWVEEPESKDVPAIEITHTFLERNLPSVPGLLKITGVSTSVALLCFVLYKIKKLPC

[37] = molecular target: Mitogen-activated protein kinase 14 (Homo sapiens) (UniProt Q16539); settings: Compound concentration 1000.0 nM
[38] = molecular target: Fibroblast growth factor receptor 3 (Homo sapiens) (UniProt P22607); settings: Compound concentration 1000.0 nM
[39] = molecular target: Tyrosine-protein kinase BTK (Homo sapiens) (UniProt Q06187); settings: Compound concentration 1000.0 nM
[40] = molecular target: Bcl-2-like protein 1 (Homo sapiens, UniProt Q07817); test: Time-resolved fluorescence energy transfer (TR-FRET) with BCL2L1
Chain of Bcl-2-like protein 1 (Q07817 whole entry): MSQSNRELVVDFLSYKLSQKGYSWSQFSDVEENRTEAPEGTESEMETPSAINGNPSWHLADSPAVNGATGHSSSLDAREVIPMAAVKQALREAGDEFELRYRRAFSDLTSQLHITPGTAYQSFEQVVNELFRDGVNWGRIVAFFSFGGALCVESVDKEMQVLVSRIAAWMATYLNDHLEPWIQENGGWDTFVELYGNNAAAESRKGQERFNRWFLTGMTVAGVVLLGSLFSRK

[41] = molecular target: RAC-alpha serine/threonine-protein kinase (Homo sapiens) (UniProt P31749); settings: Compound concentration 1000.0 nM
[42] = tested on: Proto-oncogene tyrosine-protein kinase receptor Ret (Homo sapiens), P07949 [V804L]; settings: Compound concentration 1000.0 nM
[43] = molecular target: Protein-tyrosine kinase 2-beta (Homo sapiens) (UniProt Q14289); settings: Compound concentration 1000.0 nM
Chain of Protein-tyrosine kinase 2-beta (Homo sapiens) (Q14289 whole entry, looked up): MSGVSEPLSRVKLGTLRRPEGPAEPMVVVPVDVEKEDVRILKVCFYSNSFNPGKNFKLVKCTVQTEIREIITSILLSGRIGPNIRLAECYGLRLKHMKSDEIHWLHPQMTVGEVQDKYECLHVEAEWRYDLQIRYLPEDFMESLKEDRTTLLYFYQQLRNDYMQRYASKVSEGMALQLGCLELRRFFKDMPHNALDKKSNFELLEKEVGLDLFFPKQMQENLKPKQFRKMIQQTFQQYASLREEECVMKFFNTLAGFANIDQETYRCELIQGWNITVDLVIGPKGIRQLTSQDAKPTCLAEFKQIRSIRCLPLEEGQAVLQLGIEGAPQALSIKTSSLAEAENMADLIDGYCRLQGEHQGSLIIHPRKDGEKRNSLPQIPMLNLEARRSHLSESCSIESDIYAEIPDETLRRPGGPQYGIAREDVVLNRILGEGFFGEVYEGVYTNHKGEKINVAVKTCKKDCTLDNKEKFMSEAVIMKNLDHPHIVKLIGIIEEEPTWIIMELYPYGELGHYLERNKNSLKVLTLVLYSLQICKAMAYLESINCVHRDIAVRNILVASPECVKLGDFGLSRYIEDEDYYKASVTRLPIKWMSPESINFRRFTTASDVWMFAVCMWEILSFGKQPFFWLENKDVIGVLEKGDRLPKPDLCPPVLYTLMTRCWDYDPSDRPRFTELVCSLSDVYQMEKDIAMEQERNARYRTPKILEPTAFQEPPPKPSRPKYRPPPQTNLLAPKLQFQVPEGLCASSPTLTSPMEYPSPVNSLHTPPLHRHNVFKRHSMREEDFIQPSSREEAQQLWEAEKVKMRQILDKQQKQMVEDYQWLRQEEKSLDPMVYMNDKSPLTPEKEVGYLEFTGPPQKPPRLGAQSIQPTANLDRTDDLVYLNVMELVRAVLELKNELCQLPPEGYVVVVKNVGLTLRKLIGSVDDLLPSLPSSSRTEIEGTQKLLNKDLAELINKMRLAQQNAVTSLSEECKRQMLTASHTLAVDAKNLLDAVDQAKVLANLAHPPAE

[44] = molecular target: Cyclin-dependent kinase 11B (Homo sapiens) (UniProt P21127); settings: Compound concentration 1000.0 nM

O=C(NS(=O)(=O)c1ccc(NCC2CCOCC2)c([N+](=O)[O-])c1)c1ccc(N2CCN(Cc3ccc(C(F)(F)F)cc3-c3ccc(Cl)cc3)CC2)cc1Oc1cnc2[nH]ccc2c1 [A-1210227]
8.7%: inhibition at 60 min, 10 µM [36]
inactive: residual activity [1] 100% | residual activity [2] 83% | residual activity [5] 100% | inhibition [6] -9.16% | residual activity [7] 100% | residual activity [8] 100% | residual activity [9] 100% | residual activity [10] 87% | residual activity [11] 81% | residual activity [12] 100% | residual activity [13] 100% | residual activity [14] 90% | residual activity [15] 100% | residual activity [16] 73% | residual activity [17] 100% | residual activity [18] 94% | residual activity [19] 83% | residual activity [20] 80% | residual activity [21] 99% | residual activity [22] 100% | residual activity [23] 99% | residual activity [24] 92% | residual activity [26] 98% | inhibition [27] -6.27% | residual activity [28] 100% | residual activity [29] 83% | residual activity [30] 100% | residual activity [31] 88% | residual activity [32] 84% | residual activity [33] 100% | residual activity [34] 86% | residual activity [35] 100% | residual activity [37] 97% | residual activity [38] 100% | residual activity [39] 100% | residual activity [41] 74% | residual activity [42] 100% | residual activity [43] 100% | residual activity [44] 97%
-7.6%: % Inhibition of Control Specific Binding (Mean n=2) [3] | % Inhibition of Control Specific Binding (Mean n=2) [4]
-51.4%: % Inhibition of Control Specific Binding (Mean n=2) [25]
> 25 µM (not active): IC50 [40]

CO[C@H]1CC[C@H](CNc2ccc(S(=O)(=O)NC(=O)c3ccc(N4CCN(CC5=C(c6ccc(Cl)cc6)CC(C)(C)CC5)CC4)cc3Oc3cnc4[nH]ccc4c3)cc2[N+](=O)[O-])CC1 [A-1211212]
inactive: residual activity [1] 100% | residual activity [2] 76% | residual activity [5] 79% | inhibition [6] 34.2% | residual activity [7] 100% | residual activity [8] 98% | residual activity [9] 99% | residual activity [10] 78% | residual activity [11] 93% | residual activity [12] 100% | residual activity [13] 83% | residual activity [14] 83% | residual activity [15] 80% | residual activity [16] 67% | residual activity [17] 93% | residual activity [18] 90% | residual activity [19] 89% | residual activity [20] 92% | residual activity [21] 99% | residual activity [22] 81% | residual activity [23] 90% | residual activity [24] 99% | residual activity [26] 69% | inhibition [27] 8.17% | residual activity [28] 100% | residual activity [29] 67% | residual activity [30] 100% | residual activity [31] 71% | residual activity [32] 76% | residual activity [33] 80% | residual activity [34] 86% | residual activity [35] 67% | residual activity [37] 83% | residual activity [38] 95% | residual activity [39] 100% | residual activity [41] 72% | residual activity [42] 88% | residual activity [43] 87% | residual activity [44] 98%
1.9%: % Inhibition of Control Specific Binding [3]
0.753 µM (not active): IC50 [40]
-5.9%: inhibition at 60 min, 10 µM [36]
2.5%: % Inhibition of Control Specific Binding (Mean n=2) [4]
-142%: % Inhibition of Control Specific Binding (Mean n=2) [25]
